Values joined by “and” are separate entries in the source; they are usually repeats but may differ in a detail not shown here. Identical values can stand only once. Like-named read-outs stand apart in the source and are kept apart here.
Assays:
[1] = tested on: CV-B3 (strain Nancy); format: cell-based, coxsackievirus B3
[2] = in vitro; conditions: monkey
[3] = tested on: CV-A24; assay: microbe, parasite or virus in culture; format: cell-based, coxsackievirus A24; conditions: Enterovirus C
[4] = tested on: EV-D68; assay: microbe, parasite or virus in culture; format: cell-based, enterovirus D68; conditions: for EC50: Enterovirus D
[5] = tested on: CV-B3; assay: microbe, parasite or virus in culture; format: cell-based, coxsackievirus B3; conditions: Enterovirus B
[6] = tested on: EV-D68 (strain Fermon); format: cell-based, enterovirus D68
[7] = tested on: EV-A71 (strain BrCr); format: cell-based, enterovirus A71
[8] = tested on: EV-A71; assay: microbe, parasite or virus in culture; format: cell-based, enterovirus A71; conditions: for EC50: Enterovirus A
[9] = tested on: CV-A24v; assay: microbe, parasite or virus in culture; format: cell-based, coxsackievirus A24v

Question: With COc1ccc(N(Cc2ccc(F)cc2)C(=O)c2ccco2)cc1 [Compound 1, N-(4-fluorobenzyl)-N-(4-methoxyphenyl)furan-2-carboxamide] as the compound, how does the “virus titer, TCID50/ml (Figure 2A)” value ([1]; compound concentration 1 µM) read?
Answer: The value was 1000000000 TCID50/ml.

Question: What about the “virus titer, TCID50/ml (Figure 2A)” value ([1]; compound concentration 10 µM) of the same compound?
Answer: Its value is 31622.8 TCID50/ml and 16982.4 TCID50/ml and 21379.6 TCID50/ml.

Question: What about the CC50 ([2]; CC50) of the same compound?
Answer: Its CC50 is 50.65 ± 0.32 µM.

Question: What about the CC50 ([2]; CC50 BGM Average) of the same compound?
Answer: The CC50 was 50.6 µM.

Question: And the CC50 ([2]; Exp 1 CC50 BGM)?
Answer: Its CC50 is 51 µM.

Question: And the CC50 ([2]; Exp 2 CC50 BGM)?
Answer: Its CC50 is 50.3 µM.

Question: What about the EC50 ([3]; CVA24, HeLa R19, read-out: EC50 CV-A24) of the same compound?
Answer: The EC50 was > 30 µM.

Question: What about the EC50 ([3]; CVA24, HeLa R19, read-out: EC50 CV-A24 Average) of the same compound?
Answer: Its EC50 is > 30 µM.

Question: And the EC50 ([3]; CVA24, HeLa R19, read-out: EC50 CV-A24 Experiement 3)?
Answer: The EC50 was > 30 µM.

Question: And the EC50 ([3]; CVA24, HeLa R19, read-out: EC50 CV-A24 Experiment 1)?
Answer: Its EC50 is > 30 µM.

Question: What about the EC50 ([3]; CVA24, HeLa R19, read-out: EC50 CV-A24 Experiment 2) of the same compound?
Answer: The EC50 was > 30 µM.

Question: What about the EC50 ([3]; CVA24, HeLa R19, read-out: EC50 CV-A24 strain Joseph) of the same compound?
Answer: The EC50 was > 30 µM.

Question: And the “inhibition of EV-D68 replication (in words)” value [4]?
Answer: Its value is “antiviral activity”.

Question: What about the “Figure 7 dose-response raw data, EV-D68 (triplicate values)” value (“Figure 7 dose-response raw data, EV-D68” for short) ([4]; Concentration 0.001 µM) of the same compound?
Answer: Its value is 8.529 and 8.161 and 15.8928.

Question: And the “Figure 7 dose-response raw data, EV-D68” value ([4]; Concentration 0.0412 µM)?
Answer: The value was 9.388 and 8.898 and 11.4747.

Question: What about the “Figure 7 dose-response raw data, EV-D68” value ([4]; Concentration 0.1235 µM) of the same compound?
Answer: The value was 8.529 and 8.161 and 15.8928.

Question: What about the “Figure 7 dose-response raw data, EV-D68” value ([4]; Concentration 0.3704 µM) of the same compound?
Answer: The value was 8.529 and 8.161 and 15.8928.

Question: And the “Figure 7 dose-response raw data, EV-D68” value ([4]; Concentration 1.1111 µM)?
Answer: The value was 105.527 and 109.089 and 109.58.

Question: What about the “Figure 7 dose-response raw data, EV-D68” value ([4]; Concentration 3.3333 µM) of the same compound?
Answer: The value was 104.422 and 100.246 and 109.335.

Question: What about the “Figure 7 dose-response raw data, EV-D68” value ([4]; Concentration 10 µM) of the same compound?
Answer: The value was 100.368 and 102.702 and 104.422.

Question: What about the EC50 ([4]; EVD68, HeLa R19, read-out: EC50 EV-D68 Experiement 3) of the same compound?
Answer: The EC50 was 0.31 µM.

Question: And the EC50 ([4]; EVD68, HeLa R19, read-out: EC50 EV-D68 Experiment 1)?
Answer: The EC50 was 0.25 µM.

Question: What about the EC50 ([4]; EVD68, HeLa R19, read-out: EC50 EV-D68 Experiment 2) of the same compound?
Answer: Its EC50 is 0.39 µM.

Question: And the EC50 ([4]; EVD68, HeLa R19, read-out: EC50 EV-D68 strain 4310900947)?
Answer: Its EC50 is 3.65 ± 0.34 µM.

Question: What about the EC50 ([4]; EVD68, HeLa R19, read-out: EC50 EV-D68 strain 4310901348) of the same compound?
Answer: Its EC50 is 4.47 ± 0.13 µM.

Question: What about the EC50 ([4]; EVD68, HeLa R19, read-out: EC50 EV-D68 strain 4310902042) of the same compound?
Answer: Its EC50 is 4.05 ± 0.65 µM.

Question: And the EC50 ([4]; EVD68, HeLa R19, read-out: EC50 EV-D68 strain 4310902284)?
Answer: Its EC50 is 2.23 ± 0.12 µM.

Question: And the EC50 ([4]; EVD68, HeLa R19, read-out: EC50 EV-D68 strain 4311000742)?
Answer: Its EC50 is 3.83 ± 0.4 µM.

Question: And the EC50 ([4]; EVD68, HeLa R19, read-out: EC50 Exp2)?
Answer: The EC50 was 1.95 µM.

Question: What about the EC50 ([5]; CVB3, HAP1, read-out: EC50 Hap1 Average) of the same compound?
Answer: The EC50 was 1.57 µM.

Question: And the EC50 ([5]; CVB3, HAP1, read-out: Exp 1 EC50 Hap1)?
Answer: The EC50 was 1.49 µM.

Question: What about the EC50 ([5]; CVB3, HAP1, read-out: Exp 2 EC50 Hap1) of the same compound?
Answer: The EC50 was 1.65 µM.

Question: And the “virus titer, TCID50/ml (Figure 2A)” value ([6]; compound concentration 3 µM)?
Answer: Its value is 31622.8 TCID50/ml and 21379.6 TCID50/ml and 35481.3 TCID50/ml.

Question: What about the “virus titer, TCID50/ml (Figure 2A)” value ([6]; compound concentration 10 µM) of the same compound?
Answer: Its value is 31622.8 TCID50/ml and 21379.6 TCID50/ml and 35481.3 TCID50/ml.

Question: What about the “virus titer, TCID50/ml (Figure 2A)” value ([6]; compound concentration 100 µM) of the same compound?
Answer: Its value is 31622.8 TCID50/ml and 21379.6 TCID50/ml and 35481.3 TCID50/ml.

Question: What about the “virus titer, TCID50/ml (Figure 2A)” value ([7]; compound concentration 0.001 µM) of the same compound?
Answer: The value was 316228 TCID50/ml.

Question: And the “virus titer, TCID50/ml (Figure 2A)” value ([7]; compound concentration 0.01 µM)?
Answer: The value was 316228 TCID50/ml.

Question: What about the “virus titer, TCID50/ml (Figure 2A)” value ([7]; compound concentration 0.1 µM) of the same compound?
Answer: Its value is 316228 TCID50/ml.

Question: And the “virus titer, TCID50/ml (Figure 2A)” value ([7]; compound concentration 0.3 µM)?
Answer: The value was 316228 TCID50/ml.

Question: And the “Figure 7 dose-response raw data, EV-A71 (triplicate values)” value (“Figure 7 dose-response raw data, EV-A71” below) ([8]; Concentration 0.0046 µM)?
Answer: The value was 12.0987 and 12.2161 and 13.2733.

Question: What about the “Figure 7 dose-response raw data, EV-A71” value ([8]; Concentration 0.0137 µM) of the same compound?
Answer: Its value is 11.5913 and 20.0727 and 21.6478.

Question: What about the “Figure 7 dose-response raw data, EV-A71” value ([8]; Concentration 0.0412 µM) of the same compound?
Answer: Its value is 13.4087 and 20.6785 and 25.0404.

Question: And the “Figure 7 dose-response raw data, EV-A71” value ([8]; Concentration 0.1235 µM)?
Answer: Its value is 12.0987 and 12.2161 and 13.2733.

Question: What about the “Figure 7 dose-response raw data, EV-A71” value ([8]; Concentration 0.3704 µM) of the same compound?
Answer: Its value is 11.5913 and 20.0727 and 21.6478.

Question: And the “Figure 7 dose-response raw data, EV-A71” value ([8]; Concentration 1.1111 µM)?
Answer: Its value is 13.4087 and 20.6785 and 25.0404.

Question: What about the “Figure 7 dose-response raw data, EV-A71” value ([8]; Concentration 3.3333 µM) of the same compound?
Answer: Its value is 12.0987 and 12.2161 and 13.2733.

Question: And the “Figure 7 dose-response raw data, EV-A71” value ([8]; Concentration 11.1111 µM)?
Answer: The value was 11.5913 and 20.0727 and 21.6478.

Question: What about the “Figure 7 dose-response raw data, EV-A71” value ([8]; Concentration 33.3333 µM) of the same compound?
Answer: The value was 13.4087 and 20.6785 and 25.0404.

Question: What about the “Figure 7 dose-response raw data, EV-A71” value ([8]; Concentration 100 µM) of the same compound?
Answer: Its value is 11.5913 and 20.0727 and 21.6478.

Question: And the EC50 ([8]; EVA71, HeLa R19, read-out: EC50 EV-A71)?
Answer: Its EC50 is > 30 µM.

Question: And the EC50 ([8]; EVA71, HeLa R19, read-out: EC50 EV-A71 Average)?
Answer: The EC50 was > 30 µM.

Question: And the EC50 ([8]; EVA71, HeLa R19, read-out: EC50 EV-A71 Experiement 3)?
Answer: The EC50 was > 30 µM.

Question: And the EC50 ([8]; EVA71, HeLa R19, read-out: EC50 EV-A71 Experiment 1)?
Answer: The EC50 was > 30 µM.

Question: And the EC50 ([8]; EVA71, HeLa R19, read-out: EC50 EV-A71 Experiment 2)?
Answer: The EC50 was > 30 µM.

Question: And the EC50 ([8]; EVA71, HeLa R19, read-out: EC50 EV-A71 strain BrCr)?
Answer: The EC50 was > 30 µM.

Question: And the EC50 ([8]; EVA71, HeLa R19, read-out: EC50 EV-A71 strain TW/2728/04)?
Answer: Its EC50 is > 30 µM.

Question: What about the EC50 ([8]; EVA71, HeLa R19, read-out: EC50 EV-A71 strain TW/2945/98) of the same compound?
Answer: Its EC50 is > 30 µM.

Question: What about the EC50 ([8]; EVA71, HeLa R19, read-out: EC50 EV-A71 strain TW/70811/08) of the same compound?
Answer: The EC50 was > 30 µM.

Question: What about the EC50 ([8]; EVA71, HeLa R19, read-out: EC50 EV-A71 strain TW/72232/04) of the same compound?
Answer: The EC50 was > 30 µM.

Question: And the EC50 ([8]; EVA71, HeLa R19, read-out: EC50 EV-A71 strain TW/96016/08)?
Answer: Its EC50 is > 30 µM.

Question: What about the “Figure 7 dose-response raw data, CV-A24v (triplicate values)” value (“Figure 7 dose-response raw data, CV-A24v” below) ([9]; Concentration 0.0046 µM) of the same compound?
Answer: The value was 10.497 and 8.759 and 8.625.

Question: And the “Figure 7 dose-response raw data, CV-A24v” value ([9]; Concentration 0.0137 µM)?
Answer: Its value is 9.388 and 8.898 and 11.4747.

Question: What about the “Figure 7 dose-response raw data, CV-A24v” value ([9]; Concentration 0.0412 µM) of the same compound?
Answer: Its value is 9.388 and 8.898 and 11.4747.

Source: PMC7673538 (PLoS Biology, 2020)
